In experiment [1] the test system is keratinocytes. Kind of experiment: Keratinocyte differentiation measured by expression of transglutaminase-1 protein. It is filed as cell-based. The procedure: In these studies, keratinocytes were grown in Medium154, a low calcium medium supplemented with bovine pituitary extract (BPE), bovine insulin, bovine transferrin, human epidermal growth factor (EGF) and hydrocortisone. Keratinocytes were grown to 60-80% confluence and subcultured by using trypsin/EDTA. The effect of topiramate on keratinocyte differentiation was measured by the expression of transglutaminase-1 protein after three days of treatment. Three separate experiments were performed. Differentiation was evaluated in both low calcium and high calcium incubation conditions. An increase in differentiation would be most readily observed under low calcium conditions whereas an inhibition of differentiation could be detected under conditions of high calcium-induced differentiation. […] A follow-up study was conducted which extended the incubation time to 5 days to look for further enhancement.

For experiment [2], the system named is seizures. To be noted: several rodent models of epilepsy; cited from earlier work.
In the next experiment the test system is psoriatic lesions. As to the kind of experiment: Clinical studies of topiramate in epilepsy; patients who coincidentally had psoriasis. The experiment is classed as in vivo, human. Conditions: reported by at least three epilepsy-trial patients who coincidentally had psoriasis. The procedure:
The activity of the compounds of formula I in treating psoriasis was first evidenced in clinical studies conducted to evaluate the efficacy of topiramate in treating epilepsy. […] Therefore, preclinical in vitro studies were conducted to evaluate the effects of topiramate on keratinocyte function as a putative mechanism of action for its potential beneficial effects in treating psoriasis. One of the hallmarks of psoriatic lesions is hyperproliferative epidermal keratinocytes. In general, agents that affect the proliferation of keratinocytes have an inverse effect on differentiation, i.e. they would inhibit growth and enhance differentiation. Two measures of keratinocyte function were therefore evaluated: cell growth and differentiation.

In experiment [3] the test system is simple and complex partial seizures and secondarily generalized seizures. Conditions: clinical trials; adjunctive therapy or monotherapy; cited from earlier work.
Experiment [4] concerns keratinocytes. As to the kind of experiment: Keratinocyte cell growth induced by EGF and BPE. It is filed as cell-based. Conditions: six days of treatment. As to the method: In these studies, keratinocytes were grown in Medium154, a low calcium medium supplemented with bovine pituitary extract (BPE), bovine insulin, bovine transferrin, human epidermal growth factor (EGF) and hydrocortisone. Keratinocytes were grown to 60-80% confluence and subcultured by using trypsin/EDTA. Four separate experiments were performed to evaluate the dose-dependent effect of topiramate on keratinocyte cell growth as measured by […] after six days of treatment. Topiramate was dissolved in DMSO to make a 100 mM stock solution. In all experiments the final concentration of DMSO in the cell incubation medium was 0.1%. Vehicle controls (0.1% DMSO) were included in each experiment. Cell growth was induced by a combination of the growth factors EGF and BPE.

In experiment [5] the test system is seizures. Conditions: animal model of kindled epilepsy; cited from earlier work.

The values below come from patent EP0964681B1, “ANTICONVULSANT DERIVATIVES USEFUL IN TREATING PSORIASIS” (Ortho-McNeil Pharmaceutical, Inc., priority 1996, dated 1998).

Molecules are shown by their SMILES. Like-named read-outs stand apart in the source and are kept apart here.

Consider `CC1(C)O[C@@H]2[C@@H](CO[C@@]3(COS(N)(=O)=O)OC(C)(C)O[C@@H]23)O1` [topiramate, 2,3:4,5-bis-O-(1-methylethylidene)-β-D-fructopyranose sulfamate], for which the transglutaminase-1 protein entry is “No additional increases” with keratinocytes [1] (follow-up study, incubation time extended to 5 days); “modest increase” with keratinocytes [1] (high calcium incubation conditions, three days of treatment); “modest increase” in the experiment with keratinocytes [1] (low calcium incubation conditions, three days of treatment). The block of seizures entry in the experiment on seizures [2] and in the experiment with seizures [5] was “effectively block seizures” in each case. The psoriatic lesions entry with psoriatic lesions was “marked reduction in the psoriatic lesions”. The “efficacy in treating simple and complex partial seizures and secondarily generalized seizures” value in experiment [3] was “effective as adjunctive therapy or as monotherapy”. For the same compound, the Emax at 10 µM in the experiment on keratinocytes [4] (Keratinocyte, 144 h, 10 micromolar, growth induced by EGF and BPE, four experiments, not statistically significant (p>0.05), read-out: inhibition of cell growth (maximal response)) was determined as 32 ± 10%. Moreover, the “dose dependence of the effect on keratinocyte cell growth” value in the experiment on keratinocytes [4] (four experiments) is on record as “no dose dependence was observed”. In the experiment with keratinocytes [4] (growth induced by EGF and BPE, 0.1% DMSO), the “effect on keratinocyte cell growth” value is recorded as “modest inhibitory effect”.
